Test results as given in ChEMBL document CHEMBL5653615 (J Biol Chem, 2013).

Tests used:
[1] = biological target: Misshapen-like kinase 1 (Homo sapiens) (UniProt Q8N4C8); assay: Inhibition of human MINK1 at 18.6 nM by HotSpot assay relative to control
[2] = biological target: Serine/threonine-protein kinase PAK 2 (Homo sapiens) (UniProt Q13177); assay: Inhibition of human PAK2 at 18.6 nM by HotSpot assay relative to control
[3] = biological target: CDK6/cyclin D1 (Homo sapiens) (UniProt P24385+Q00534); assay: Inhibition of human CDK6/cyclin D1 at 1.82 nM by HotSpot assay relative to control; type: protein-complex assay
[4] = biological target: Fibroblast growth factor receptor 4 (Homo sapiens) (UniProt P22455); assay: Inhibition of human FGFR4 at 1.82 nM by HotSpot assay relative to control
Fibroblast growth factor receptor 4 (Homo sapiens), sequence (P22455 22-802 limits assumed): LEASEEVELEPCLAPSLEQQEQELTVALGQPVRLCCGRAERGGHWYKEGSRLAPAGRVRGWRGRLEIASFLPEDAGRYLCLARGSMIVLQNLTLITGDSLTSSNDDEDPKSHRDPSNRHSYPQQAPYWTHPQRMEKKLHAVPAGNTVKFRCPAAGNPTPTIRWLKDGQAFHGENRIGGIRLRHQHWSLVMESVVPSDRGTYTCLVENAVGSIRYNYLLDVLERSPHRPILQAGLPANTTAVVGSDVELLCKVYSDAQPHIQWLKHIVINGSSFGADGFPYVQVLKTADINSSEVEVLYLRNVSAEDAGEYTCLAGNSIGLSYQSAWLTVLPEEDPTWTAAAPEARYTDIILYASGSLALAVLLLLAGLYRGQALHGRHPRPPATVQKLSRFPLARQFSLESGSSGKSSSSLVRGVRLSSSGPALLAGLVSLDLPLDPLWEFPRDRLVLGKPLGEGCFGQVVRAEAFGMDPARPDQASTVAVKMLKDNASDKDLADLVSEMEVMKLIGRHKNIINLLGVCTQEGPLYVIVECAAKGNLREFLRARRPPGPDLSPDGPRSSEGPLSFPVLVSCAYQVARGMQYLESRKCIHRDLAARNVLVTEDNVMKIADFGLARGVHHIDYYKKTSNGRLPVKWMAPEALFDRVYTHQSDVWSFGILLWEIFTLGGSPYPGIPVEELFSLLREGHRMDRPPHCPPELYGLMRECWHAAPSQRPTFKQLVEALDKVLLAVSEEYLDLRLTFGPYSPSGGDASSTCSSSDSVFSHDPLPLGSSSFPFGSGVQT

[5] = biological target: Serine/threonine-protein kinase pim-1 (Homo sapiens) (UniProt P11309); assay: Inhibition of human PIM1 at 1.82 nM by HotSpot assay relative to control
Serine/threonine-protein kinase pim-1 (Homo sapiens), sequence (P11309 whole entry, looked up): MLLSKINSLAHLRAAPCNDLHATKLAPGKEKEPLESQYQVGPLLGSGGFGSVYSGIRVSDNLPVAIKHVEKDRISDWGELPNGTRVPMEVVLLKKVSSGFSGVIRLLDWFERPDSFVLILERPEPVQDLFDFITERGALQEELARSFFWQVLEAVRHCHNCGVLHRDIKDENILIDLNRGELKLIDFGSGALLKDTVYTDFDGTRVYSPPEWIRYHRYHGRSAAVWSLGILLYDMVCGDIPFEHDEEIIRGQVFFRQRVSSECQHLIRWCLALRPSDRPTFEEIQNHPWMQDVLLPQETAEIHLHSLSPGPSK

[6] = biological target: T1, Lymphokine-activated killer T-cell-originated protein kinase (Homo sapiens) (UniProt Q96KB5); assay: Inhibition of human TOPK at 1.82 nM by HotSpot assay relative to control
T1 sequence (whole entry): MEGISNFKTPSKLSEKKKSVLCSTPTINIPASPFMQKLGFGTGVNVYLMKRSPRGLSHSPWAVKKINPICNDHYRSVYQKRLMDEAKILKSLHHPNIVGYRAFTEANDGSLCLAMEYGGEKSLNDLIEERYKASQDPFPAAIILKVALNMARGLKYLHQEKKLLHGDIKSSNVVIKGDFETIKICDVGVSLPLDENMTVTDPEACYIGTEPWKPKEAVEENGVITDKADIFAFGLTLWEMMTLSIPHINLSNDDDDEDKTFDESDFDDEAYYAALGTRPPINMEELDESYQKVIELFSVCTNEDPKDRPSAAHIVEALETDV

[7] = biological target: T2, Beta-adrenergic receptor kinase 1 (Homo sapiens) (UniProt P25098); assay: Inhibition of human GRK2 at 1.82 nM by HotSpot assay relative to control
T2 sequence (whole entry): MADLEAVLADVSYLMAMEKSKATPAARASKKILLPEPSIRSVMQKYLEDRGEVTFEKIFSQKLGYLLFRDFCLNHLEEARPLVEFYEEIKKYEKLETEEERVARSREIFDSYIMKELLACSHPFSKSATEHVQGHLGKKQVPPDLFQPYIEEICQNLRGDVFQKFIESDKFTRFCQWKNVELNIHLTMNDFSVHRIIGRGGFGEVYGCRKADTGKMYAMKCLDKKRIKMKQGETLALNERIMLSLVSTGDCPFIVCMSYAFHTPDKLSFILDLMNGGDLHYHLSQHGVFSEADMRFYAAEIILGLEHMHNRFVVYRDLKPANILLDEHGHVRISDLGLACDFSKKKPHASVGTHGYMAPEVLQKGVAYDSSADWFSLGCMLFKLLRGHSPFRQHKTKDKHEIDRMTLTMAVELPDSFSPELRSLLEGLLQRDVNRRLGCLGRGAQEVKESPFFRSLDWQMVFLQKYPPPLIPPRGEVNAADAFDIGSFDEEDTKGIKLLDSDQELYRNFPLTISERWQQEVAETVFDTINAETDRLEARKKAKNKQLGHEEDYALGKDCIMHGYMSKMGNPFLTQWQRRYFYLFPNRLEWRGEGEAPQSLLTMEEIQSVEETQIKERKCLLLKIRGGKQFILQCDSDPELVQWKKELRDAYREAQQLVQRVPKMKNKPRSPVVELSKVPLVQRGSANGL

[8] = biological target: T3, Homeodomain-interacting protein kinase 4 (Homo sapiens) (UniProt Q8NE63); assay: Inhibition of human HIPK4 at 1.82 nM by HotSpot assay relative to control
T3 sequence (whole entry): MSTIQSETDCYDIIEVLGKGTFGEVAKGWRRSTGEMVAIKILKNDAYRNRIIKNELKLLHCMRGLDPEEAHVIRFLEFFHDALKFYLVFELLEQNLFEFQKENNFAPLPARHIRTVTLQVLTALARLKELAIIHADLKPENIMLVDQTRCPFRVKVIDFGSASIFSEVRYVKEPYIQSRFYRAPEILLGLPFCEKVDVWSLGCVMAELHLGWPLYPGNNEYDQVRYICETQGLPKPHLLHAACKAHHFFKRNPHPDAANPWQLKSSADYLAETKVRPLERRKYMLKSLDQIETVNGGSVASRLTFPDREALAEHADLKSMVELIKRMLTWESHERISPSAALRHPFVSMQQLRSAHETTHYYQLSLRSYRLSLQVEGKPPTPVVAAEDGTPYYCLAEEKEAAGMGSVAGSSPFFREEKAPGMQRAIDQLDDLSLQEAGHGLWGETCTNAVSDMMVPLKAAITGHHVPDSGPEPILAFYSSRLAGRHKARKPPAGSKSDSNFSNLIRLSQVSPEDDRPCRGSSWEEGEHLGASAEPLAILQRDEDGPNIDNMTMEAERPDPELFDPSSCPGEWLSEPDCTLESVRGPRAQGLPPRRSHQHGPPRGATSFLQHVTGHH

[9] = biological target: STE20/SPS1-related proline-alanine-rich protein kinase (Homo sapiens) (UniProt Q9UEW8); assay: Inhibition of human STLK3 at 1.82 nM by HotSpot assay relative to control
[10] = biological target: T4, Serine/threonine-protein kinase STK11 (Homo sapiens) (UniProt Q15831); assay: Inhibition of human LKB1 at 1.82 nM by HotSpot assay relative to control
T4 sequence (whole entry): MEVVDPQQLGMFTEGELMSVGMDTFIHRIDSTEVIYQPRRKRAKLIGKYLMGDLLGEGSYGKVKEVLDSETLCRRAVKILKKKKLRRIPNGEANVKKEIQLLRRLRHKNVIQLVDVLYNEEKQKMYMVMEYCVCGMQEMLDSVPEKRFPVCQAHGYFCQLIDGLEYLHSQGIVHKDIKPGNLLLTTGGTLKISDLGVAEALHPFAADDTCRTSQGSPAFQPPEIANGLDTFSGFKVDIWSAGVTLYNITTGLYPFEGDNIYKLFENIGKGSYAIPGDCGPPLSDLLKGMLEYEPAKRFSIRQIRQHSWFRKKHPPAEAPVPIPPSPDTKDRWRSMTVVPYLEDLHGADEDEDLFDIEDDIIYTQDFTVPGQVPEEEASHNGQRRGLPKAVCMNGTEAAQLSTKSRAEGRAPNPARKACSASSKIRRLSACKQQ

Misshapen-like kinase 1 (Homo sapiens), sequence (Q8N4C8 whole entry, looked up): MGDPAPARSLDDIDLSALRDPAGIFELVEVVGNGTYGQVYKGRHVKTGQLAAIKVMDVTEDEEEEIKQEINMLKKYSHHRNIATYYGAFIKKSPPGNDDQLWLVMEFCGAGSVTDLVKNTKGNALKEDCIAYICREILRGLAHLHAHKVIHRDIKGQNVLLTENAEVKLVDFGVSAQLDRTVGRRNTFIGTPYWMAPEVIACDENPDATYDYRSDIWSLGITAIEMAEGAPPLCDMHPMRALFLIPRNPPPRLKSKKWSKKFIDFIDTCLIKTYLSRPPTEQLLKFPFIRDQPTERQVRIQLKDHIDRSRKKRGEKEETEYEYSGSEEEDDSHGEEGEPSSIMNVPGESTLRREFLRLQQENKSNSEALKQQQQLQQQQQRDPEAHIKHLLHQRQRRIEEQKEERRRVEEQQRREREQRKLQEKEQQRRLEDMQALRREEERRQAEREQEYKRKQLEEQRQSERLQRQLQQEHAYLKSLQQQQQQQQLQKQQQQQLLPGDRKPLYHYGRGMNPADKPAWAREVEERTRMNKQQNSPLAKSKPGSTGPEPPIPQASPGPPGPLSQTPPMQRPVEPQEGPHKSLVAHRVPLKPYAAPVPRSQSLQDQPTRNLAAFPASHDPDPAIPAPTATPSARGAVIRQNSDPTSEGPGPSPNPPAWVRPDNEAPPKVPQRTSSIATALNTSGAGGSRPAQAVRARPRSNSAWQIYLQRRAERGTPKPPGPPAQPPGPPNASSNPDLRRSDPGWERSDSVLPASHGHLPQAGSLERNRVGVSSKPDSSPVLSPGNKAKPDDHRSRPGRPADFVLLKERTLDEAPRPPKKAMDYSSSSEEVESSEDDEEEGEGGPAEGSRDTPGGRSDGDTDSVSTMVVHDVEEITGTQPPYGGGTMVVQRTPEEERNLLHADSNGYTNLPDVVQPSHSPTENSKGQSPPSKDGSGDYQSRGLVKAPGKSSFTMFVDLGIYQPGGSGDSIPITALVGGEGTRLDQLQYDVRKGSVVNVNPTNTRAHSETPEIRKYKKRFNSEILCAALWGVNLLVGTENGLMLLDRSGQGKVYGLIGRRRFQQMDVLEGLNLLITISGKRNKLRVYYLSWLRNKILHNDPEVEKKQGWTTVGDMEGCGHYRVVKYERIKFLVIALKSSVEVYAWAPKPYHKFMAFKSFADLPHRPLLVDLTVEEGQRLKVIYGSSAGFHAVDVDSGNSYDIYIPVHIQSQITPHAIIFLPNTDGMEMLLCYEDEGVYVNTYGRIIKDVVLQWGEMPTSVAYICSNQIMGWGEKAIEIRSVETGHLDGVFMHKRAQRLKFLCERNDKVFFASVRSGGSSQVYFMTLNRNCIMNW
Serine/threonine-protein kinase PAK 2 (Homo sapiens), sequence (Q13177 whole entry): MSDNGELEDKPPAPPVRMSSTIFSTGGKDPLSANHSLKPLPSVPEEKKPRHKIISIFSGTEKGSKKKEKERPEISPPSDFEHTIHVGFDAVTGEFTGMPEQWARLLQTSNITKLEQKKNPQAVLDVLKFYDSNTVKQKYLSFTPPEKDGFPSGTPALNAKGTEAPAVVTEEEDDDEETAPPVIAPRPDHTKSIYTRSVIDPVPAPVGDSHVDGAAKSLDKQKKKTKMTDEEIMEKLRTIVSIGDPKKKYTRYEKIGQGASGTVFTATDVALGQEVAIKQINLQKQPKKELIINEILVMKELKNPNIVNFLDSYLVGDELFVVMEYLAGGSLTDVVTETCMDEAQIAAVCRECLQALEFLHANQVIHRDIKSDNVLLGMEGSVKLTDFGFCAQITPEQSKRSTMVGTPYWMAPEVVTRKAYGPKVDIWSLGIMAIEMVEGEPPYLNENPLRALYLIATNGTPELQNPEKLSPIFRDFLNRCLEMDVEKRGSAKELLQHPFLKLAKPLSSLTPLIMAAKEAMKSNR

Row | inhibition [1] [%] | inhibition [2] [%] | inhibition [3] [%] | inhibition [4] [%] | inhibition [5] [%] | inhibition [7] [%] | inhibition [8] [%] | inhibition [9] [%] | inhibition [10] [%] | Structure (SMILES) | inhibition [6] [%]
1 | -2.76 | -7.87 |  |  |  |  |  |  |  | C[C@]1(O)C[C@@H](c2nc(-c3ccc4ccc(-c5ccccc5)nc4c3)c3c(N)nccn32)C1 | 
2 |  |  | -1.74 | 6.74 | -5.96 | -0.25 | -0.23 | -5.74 | 4.47 | C[C@@]1(C(=O)Nc2ccc(F)nc2)CCCN1c1nc(Nc2cc(C3CC3)n[nH]2)c2cccn2n1 | 8.44
